Patent US20250163076A1, “SYNTHESIS OF BRUTON'S TYROSINE KINASE INHIBITORS” (JANSSEN PHARMACEUTICA NV, priority 2022, published 2025)
Values after ≈ are worked out from the molar mass of the structure shown. Read-outs that look alike come from different tables or passages of the source. One block for each molecule: values may come before it.

Experiments:
[1] = Epimerization kinetics / rotational energy barrier of atropisomers in solvents; type: physicochemical
Description: The rotational energy barrier of compound of Formula (II) atropisomers was estimated according to the method known in the art. The rotational barrier was determined in several solvents and their aqueous mixtures and the results are reported in Table 13, where an average value of 120.5 kJ mol^−1 or 28.8 kcal mol^−1, corresponding to epimerization half-lives of 63.8 and 4.0 months at 20° C. and 37° C., respectively, were obtained, placing this compound on the top segment of Class 2 atropisomers according to the classification systems known in the art. The rotational barrier is slightly influenced by the solvent and increases in the order 1-butanol<2-butanol<1-propanol<propylene carbonate. Additionally, increasing amounts of water increased substantially the rotational barrier in all solvents with the highest value obtained in 1-propanol/water 33/67 w/w % system. Unfortunately, due to the low aqueous solubility of compound of Formula (II) in water, epimerization studies could not be accurately conducted in pure water.
Enriched compound of Formula (II) of the P isomer was dissolved in the respective solvent to create a concentration of ˜1 wt % and was placed in a standard screw cap vial (1.8 mL) equipped with a magnetic stirring bar. Subsequently, the vial was placed in the heating block of a parallel reactor setup (Crystal16, Technobis B.V.) which was preheated to the desired temperature (80° C.-100° C., depending on the solvent). At given time intervals, small aliquot samples were taken in an HPLC vial, diluted, and the diastereomeric excess of the mixture was determined by an UPLC apparatus, equipped with an Acquity UPLC BEH C18 column (0.6 ml/min, gradient 10 mM ammonium acetate acetonitrile 95-5 v/v % and acetonitrile at 35° C.). The time points and corresponding decay of diastereomeric excess (d.e.) were plotted as t vs ln (1/d.e.) to determine the interconversion rate constant, rotational energy barrier and epimerization half-life at the respective solvent and temperature:
[formula] [formula] [formula] • where [P], [M] are the concentrations of the P and M isomers, respectively, ke is the interconversion rate constant (s^−1), ΔGe^‡ is the rotational energy barrier (KJ mol^−1), T is the absolute temperature, kB, h and R are the Boltzmann, Planck and universal gas constants, respectively and t1/2 is the epimerization half-life. An example of the data treatment and determination procedure for ke is shown in FIG. 9 for propylene carbonate system at 100° C.

[2] = as above; type: physicochemical; settings: buffer, t1/2 at 100° C.
BTK = BTK (Homo sapiens, UniProt Q06187); experiment: BTK covalent inhibition kinetics (KI, kinact, kinact/KI); type: biochemical
Description: The development of the structure-activity relationship was conducted by characterizing the non-covalent affinity of each inhibitor for BTK (KI) and the first order rate constant for irreversible covalent bond formation (kinact). The second order rate constant kinact/KI ratio is used to assess the covalent inhibitor potency because it is independent of incubation time and substrate concentrations (Copeland, R. A. Evaluation of Enzyme Inhibitors in Drug Discovery: a Guide for Medicinal Chemists and Pharmacologists; 2nd ed.; Wiley: Hoboken, N.J., 2013).

[3] = Aqueous solubility at pH 2 and pH 7; type: physicochemical; settings: for Solubility: aqueous medium
[4] = Human liver microsomes T1/2; type: in vitro ADME; settings: human, liver microsomes
Mouse CD69 cell = experiment: Mouse CD69 splenocyte assay; type: cell-based
[5] = test system: B-cell activation via B-cell receptor in rat whole blood; experiment: Rat whole blood assay, anti-IgD stimulated B-cell activation; type: cell-based; settings: for IC50: Rattus norvegicus, B-cell, anti-IgD stimulation
Description: (§1) The activity of Compound M was assessed in rat and human whole blood assays using anti-IgD and anti-IgM stimulation, respectively, to trigger B-cell activation via B-cell receptor.

[6] = test system: anti-IgM induced B cell activation in human whole blood; experiment: Human whole blood assay, anti-IgM induced B cell activation; type: cell-based; settings: anti-IgM stimulation
Description: as §1

PPB % free, rat = type: in vitro ADME; settings: plasma
PPB % free, dog = type: in vitro ADME; settings: plasma
PPB % free, cyno = type: in vitro ADME; settings: cynomolgus monkey, plasma
PPB % free, human = settings: plasma
[7] = Rat oral bioavailability (% F); type: in vivo; settings: for bioavailability: in vivo, oral
[8] = Liver microsomes T1/2 (Table 3); type: in vitro ADME; settings: species not given
[9] = human, plasma
[10] = Table 5, average of 2 independent determinations (± SD)
[11] = Table 4, average of 2 independent determinations (± SD)
[12] = aqueous buffer, Table 4, pH 7, read-out: Solubility pH 7
[13] = simulated gastric fluid, Table 4, pH 2, read-out: Solubility pH 2

BTK, sequence (Q06187 whole entry): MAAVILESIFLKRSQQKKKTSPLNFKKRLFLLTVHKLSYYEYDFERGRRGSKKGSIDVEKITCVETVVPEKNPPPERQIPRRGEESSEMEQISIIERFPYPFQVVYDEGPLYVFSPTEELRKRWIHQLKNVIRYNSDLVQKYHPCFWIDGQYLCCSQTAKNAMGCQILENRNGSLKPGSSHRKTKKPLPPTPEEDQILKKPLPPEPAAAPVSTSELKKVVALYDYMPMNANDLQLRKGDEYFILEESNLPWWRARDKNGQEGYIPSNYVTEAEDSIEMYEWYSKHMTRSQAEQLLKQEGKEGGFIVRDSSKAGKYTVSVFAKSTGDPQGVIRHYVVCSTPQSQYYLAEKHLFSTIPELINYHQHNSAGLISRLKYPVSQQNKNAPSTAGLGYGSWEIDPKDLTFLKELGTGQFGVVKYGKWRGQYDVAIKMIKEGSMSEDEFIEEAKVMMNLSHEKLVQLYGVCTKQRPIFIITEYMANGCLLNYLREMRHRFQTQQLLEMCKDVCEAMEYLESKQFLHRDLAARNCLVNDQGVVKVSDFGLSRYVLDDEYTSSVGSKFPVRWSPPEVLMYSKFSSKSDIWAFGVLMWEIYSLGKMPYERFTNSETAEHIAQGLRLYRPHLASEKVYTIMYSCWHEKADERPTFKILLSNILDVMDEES

SMILES: C=CC(=O)N[C@H]1CCC[C@H]1NC(=O)c1sc2nccc3c2c1NC(=O)N3c1cnc(CC(C)C)cc1C [Formula (II), N-((1R,2S)-2-acrylamidocyclopentyl)-5-(6-isobutyl-4-methylpyridin-3-yl)-4-oxo-4,5-dihydro-3H-1-thia-3,5,8-triazaacenaphthylene-2-carboxamide]
ΔG ([1]; 1-butanol): 28.49 kcal/mol | half-life ([1]; 1-butanol, t1/2 at 20° C.): 1100 days | ΔG ([1]; 1-butanol/water 85/15 w/w %): 28.68 kcal/mol | half-life ([1]; 1-butanol/water 85/15 w/w %, t1/2 at 20° C.): 1460 days | ΔG ([1]; 1-propanol): 28.7 kcal/mol | half-life ([1]; 1-propanol, t1/2 at 20° C.): 1460 days | ΔG ([1]; 1-propanol/water 33/67 w/w %): 29.09 kcal/mol | half-life ([1]; 1-propanol/water 33/67 w/w %, t1/2 at 20° C.): 3290 days | ΔG ([1]; 1-propanol/water 50/50 w/w %): 28.97 kcal/mol | half-life ([1]; 1-propanol/water 50/50 w/w %, t1/2 at 20° C.): 2560 days | ΔG ([1]; 1-propanol/water 67/33 w/w %): 28.85 kcal/mol | half-life ([1]; 1-propanol/water 67/33 w/w %, t1/2 at 20° C.): 2190 days | ΔG ([1]; 1-propanol/water 80/20 w/w %): 28.82 kcal/mol | half-life ([1]; 1-propanol/water 80/20 w/w %, t1/2 at 20° C.): 2190 days | ΔG ([1]; 2-MeTHF): 28.54 kcal/mol | half-life ([1]; 2-MeTHF, t1/2 at 20° C.): 1100 days | ΔG ([1]; 2-butanol): 28.54 kcal/mol | half-life ([1]; 2-butanol, t1/2 at 20° C.): 1100 days | ΔG ([1]; 2-butanol/water 70/30 w/w %): 28.78 kcal/mol | half-life ([1]; 2-butanol/water 70/30 w/w %, t1/2 at 20° C.): 1830 days | ΔG ([1]; 3-methyl-1-butanol): 28.39 kcal/mol | half-life ([1]; 3-methyl-1-butanol, t1/2 at 20° C.): 1100 days | ΔG ([1]; 3-methyl-1-butanol/water 91/9 w/w %): 28.61 kcal/mol | half-life ([1]; 3-methyl-1-butanol/water 91/9 w/w %, t1/2 at 20° C.): 1460 days | ΔG ([1]; Acetonitrile): 29.16 kcal/mol | half-life ([1]; Acetonitrile, t1/2 at 20° C.): 3650 days | ΔG ([1]; EA): 28.59 kcal/mol | half-life ([1]; EA, t1/2 at 20° C.): 1460 days | ΔG ([1]; EtOH): 28.99 kcal/mol | half-life ([1]; EtOH, t1/2 at 20° C.): 2560 days | ΔG ([1]; IPA): 28.87 kcal/mol | half-life ([1]; IPA, t1/2 at 20° C.): 2190 days | ΔG ([1]; IPAC): 28.73 kcal/mol | half-life ([1]; IPAC, t1/2 at 20° C.): 1830 days | ΔG ([1]; MEK): 28.8 kcal/mol | half-life ([1]; MEK, t1/2 at 20° C.): 1830 days | ΔG ([1]; MIBK): 28.54 kcal/mol | half-life ([1]; MIBK, t1/2 at 20° C.): 1100 days | ΔG ([1]; Propylene carbonate): 28.9 kcal/mol | ΔG ([1]; Toluene): 30.02 kcal/mol | half-life ([1]; buffer, t1/2 at 85° C.): 0.156 days | half-life ([1]; buffer, t1/2 at 120° C.): 0.00417 days | half-life ([1]; propylene carbonate, t1/2 at 20° C.): 2190 days | ΔG ([1]; propylene carbonate/water 93/7 w/w %): 28.94 kcal/mol | half-life ([1]; propylene carbonate/water 93/7 w/w %, t1/2 at 20° C.): 2560 days | half-life [2]: 0.0299 days

SMILES: C=CC(=O)N[C@H]1CCC[C@H]1NC(=O)c1sc2nccc3c2c1NC(=O)N3c1cnc(CC(C)C)cc1C (single isomer, unassigned) [Compound M]
Ki (BTK; [10]): 48.5 ± 2.9 nM | kinact (BTK; [10]): 0.000348 s⁻¹ | kinact/KI (BTK; Table 5, read-out: kinact/KI): 7290 ± 590 M⁻¹ s⁻¹ | pH 2 solubility ([3]; Table 6, pH 2): 320 μM | pH 7 solubility ([3]; Table 6, pH 7): 7 μM | Solubility ([3]; aqueous buffer, Table 5, pH 7, read-out: Solubility pH 7): 7 µM (≈ 3.63 µg/mL) | Solubility ([3]; simulated gastric fluid, Table 5, pH 2, read-out: Solubility pH 2): 320 µM (≈ 166 µg/mL) | half-life ([4]; Table 5): 0.0264 days | IC50 (Mouse CD69 cell): 99 ± 68 nM | IC50 [5]: 41 ± 12 nM | more potent in rat whole blood ([5]; compared to Compound A): 3 fold | IC50 [6]: 89 ± 12 nM | fraction unbound (PPB % free, rat): 0.037 | fraction unbound (PPB % free, dog): 0.063 | fraction unbound (PPB % free, cyno): 0.032 | fraction unbound (PPB % free, human): 0.031

SMILES: C=CC(=O)N1CC[C@@H](NC(=O)c2sc3nccc4c3c2NC(=O)N4c2ccc(Oc3ccccc3)cc2C)C1 [Compound A]
Ki (BTK; Table 3, average of two independent determinations (±SD)): 28.8 ± 21 nM | pH 2 solubility ([3]; Table 3, pH 2): <4/<4 μM | pH 7 solubility ([3]; Table 3, pH 7): <4/<4 μM | pH 2 solubility ([3]; Table 6, pH 2): <4/<4 μM | pH 7 solubility ([3]; Table 6, pH 7): <4/<4 μM | Rat % F (1 g/kg, crystalline suspension) ([7]; 1 g/kg, crystalline suspension): <1% | bioavailability ([7]; 1 g/kg, crystalline suspension, read-out: Rat % F (1 g/kg, crystalline suspension)): < 1% | bioavailability ([7]; 20% HP-β-CD solution, read-out: Rat % F (20% HP-β-CD solution)): 29.7% | Liver microsomes T1/2 ([8]; first of the two values printed 23/40): 0.016 days | half-life ([8]; liver microsomes, second of the two values printed 23/40): 0.0278 days | IC50 [5]: 130 ± 11 nM | IC50 [6]: 84 ± 39 nM | PPB % free [9]: 0.16%

SMILES: C=CC(=O)N1CCCC(NC(=O)c2sc3nccc4c3c2NC(=O)N4c2cnc(OC3CCC3)cc2C)C1 (stereo not shown) [H]
Ki (BTK; [11]): 64 ± 14 nM | kinact (BTK; [11]): 0.000316 s⁻¹ | kinact/KI (BTK; Table 4, read-out: kinact/KI): 5000 ± 560 M⁻¹ s⁻¹ | Solubility [3, 12]: 4 µM (≈ 2.13 µg/mL) | Solubility [3, 13]: 10 µM (≈ 5.33 µg/mL) | half-life ([4]; Table 4): < 0.00278 days

Continued, values first:

Ki (BTK; [11]): 456 ± 7 nM | kinact (BTK; [11]): 0.000303 s⁻¹ | kinact/KI (BTK; Table 4, read-out: kinact/KI): 664 ± 44 M⁻¹ s⁻¹ | Solubility [3, 12]: 9 µM (≈ 4.87 µg/mL) | Solubility [3, 13]: 10 µM (≈ 5.41 µg/mL) | half-life ([4]; Table 4): < 0.00278 days
SMILES: C=CC(=O)N1CCCC(NC(=O)c2sc3nccc4c3c2NC(=O)N4c2ccc(Oc3ccccc3)cn2)C1 (stereo not shown) [C]

Ki (BTK; [11]): 32 ± 20 nM | kinact (BTK; [11]): 0.00039 ± 0.00011 s⁻¹ | kinact/KI (BTK; Table 4, read-out: kinact/KI): 13800 ± 5200 M⁻¹ s⁻¹ | kinact/KI (BTK; text b354): 13800 M⁻¹ s⁻¹ | Solubility [3, 12]: < 4 µM | Solubility [3, 13]: < 4 µM | half-life ([4]; Table 4): < 0.00278 days
SMILES: C=CC(=O)N1CCCC(NC(=O)c2sc3nccc4c3c2NC(=O)N4c2ccc(Oc3ccccc3)cc2)C1 (stereo not shown) [Compound B]
